Patent US20020120001A1, “Compositions containing tryptamines, cartenoids and tocotrienols and having synergistic antioxidant effect” (Ashni Naturaceuticals, Inc., priority 2000, published 2002)
pIC50: −log10 of the molar value. ≈ marks a conversion by molar mass, not a printed value. Values belong to the compound of their own block, whether it stands above or below them.

Test: peroxy radical scavenging activity (BODIPY 581/591 C11 fluorescence with AMVN radical generator, microplate; Median Effect/CalcuSyn analysis)
[1] = Example 2, concentration of the named component in the 1:1 melatonin and natural astaxanthin mixture
[2] = Example 4, component of the melatonin and mixed tocotrienols mixture

Experimental: Measurement of peroxy radical scavenging activity of the individual compounds and combinations was performed essentially as described by Naguib (Analytical Biochemistry(1998) 265:290-298) with modifications to allow the assay to be performed on a microplate. The fatty acid indicator 4,4difluoro-5-(4-phenuyl-1,3-butadienyl)-4-bora-3a-4a-diaza-s-indacene-3-undecanate (BODIPY 581/591 C11) was purchased from Molecular Probes (Eugene, Oreg.). As a peroxy radical generator, 2,2′-azobis-2,4-dimethyl valeronitrile (AMVN) was used and obtained from WAKO Chemicals (Richmond, Va.). All standards were of the highest purity commercially available. Additionally, the solvents were of HPLC grade.
Fluorescence measurements were performed using a Packard FluoroCount microplate fluorometer equipped with a temperature-controlled plate holder. All measurements were preformed in a 96-well polypropylene plate with stirring.
Reactions in octane: butyronitrile (9:1, v/v) were carried out at 30° C. All fluorescence measurements were recorded every 15 minutes for 1 hour at excitation wavelengths of 570 nm, with emission at 620 nm. The net protection (area under the curve, AUC) by the antioxidant sample was calculated using the trapezoid method.
The final reaction mixture (200 μl) for the assay contained 0.5 μg/mL BODIPY 581/591C11 and 0.26 M AMVN in octane:butyronitrile (9:1, v/v). Stock solutions of the test samples were made up in chloroform and 6 μL was added to the reaction mixture to achieve the stated concentrations. The reaction was initiated by the addition of the AMVN fluorometric readings were then recorded every 15 minutes for one hour.
Synergy between melatonin and astaxanthin was assessed using CalcuSyn (BIOSOFT, biosoft.com). This statistical package performs multiple drug dose-effect calculations using the Median Effect methods described by T-C Chou and P. Talaly (Trends Pharmacol. Sci. 4:450-454), hereby incorporated by reference.
Cm is determined from the x-intercept of the median-effect plot. The fraction affected by the concentration of the test material is fa and the fraction unaffected by the concentration is fu (fu=1−fa). The exponent m is the parameter signifying the sigmoidicity or shape of the dose-effect curve. It is estimated by the slope of the median-effect plot.
The median-effect plot is a plot of x=log(C) vs y=log(fa/fu) and is based on the logarithmic form of Chou's median-effect equation. The goodness of fit for the data to the median-effect equation is represented by the linear correlation coefficient r of the median-effect plot.
Synergy of test components was quantified using the combination index (CI) parameter. The CI of Chou-Talaly is based on the multiple drug-effect and is derived from enzyme kinetic models (Chou, T.-C. and Talalay, P. (1977) A simple generalized equation for the analysis of multiple inhibitions of Michaelis-Menten kinetic systems. J. Biol. Chem. 252:6438-6442). The equation determines only the additive effect rather than synergism or antagonism. However, we define synergism as a more than the expected additive effect, and antagonism as a less than the expected additive effect as proposed by Cho and Talalay in 1983 (Trends Pharmacol. Sci. (1983) 4:450-454).
Dose-response curves were described with each test article separately and then in a two-way combination. For the individual dose-response curves, concentrations of melatonin included 100, 500 and 1000 μM, while the concentrations of astaxanthin were 49, 98, 490, and 980 μM.

IC50 (Example 5, test material alone): 148 (94-232) μg test/mL
SMILES: CC1=C(/C=C/C(C)=C/C=C/C(C)=C/C=C/C=C(C)/C=C/C=C(C)/C=C/C2=C(C)C(=O)[C@@H](O)CC2(C)C)C(C)(C)C[C@H](O)C1=O [Astaxanthin alone, 3, 3′-dihydroxy-β,β-carotene-4, 4′-dieto-β-carotene]
IC75 (Example 1, listed as of test material alone): 185 (107-319) μM

pIC50 (Example 3, test material alone): 4.21
SMILES: CC1=C[C@H](O)CC(C)(C)[C@H]1/C=C/C(C)=C/C=C/C(C)=C/C=C/C=C(C)/C=C/C=C(C)/C=C/C1=C(C)C[C@@H](O)CC1(C)C [Lutein alone, lutein]

pIC50 (Example 1, test material alone, 95% confidence interval in parentheses): 3.55
IC50 [1]: 38 µg/mL
IC90 [1]: 77 µg/mL (≈ 331 µM)
IC50 (Example 2, test material alone): 120 (105-137) μg/mL
pIC50 (Example 3, test material alone): 3.55
IC50 (Example 4, test material alone): 53 (25-112) μg test/mL
IC50 (Example 5, test material alone): 53 (25-112) μg test/mL
SMILES: COc1ccc2[nH]cc(CCNC(C)=O)c2c1 [Melatonin alone, N-acetyl-5-methoxytryptamine]
increase in antioxidant potency (Example 2, component in 1:1 melatonin and natural astaxanthin combination versus alone): 3.2 fold
IC75 [1]: 54 µg/mL (≈ 232 µM)
increase in antioxidant potency (Example 4, component in 1:1 melatonin and mixed tocotrienols combination versus alone): 3.1 fold
concentration for 50 percent inhibition of peroxy radical formation [2]: 17 µg/mL
concentration for 75 percent inhibition of peroxy radical formation [2]: 21 µg/mL
concentration for 90 percent inhibition of peroxy radical formation [2]: 26 µg/mL

pIC50 (Example 3, test material alone): 3.44
SMILES: CC1=C(/C=C/C(C)=C/C=C/C(C)=C/C=C/C=C(C)/C=C/C=C(C)/C=C/C2=C(C)CCCC2(C)C)C(C)(C)CCC1 [β-Carotene alone, β-carotene]
